Experimental data reported in US11051514B2, “Antifungal compounds” (Mycovia Pharmaceuticals, Inc., priority 2015, dated 2021).

Key:
[1] = Thermodynamic water solubility; assay type: physicochemical
[2] = Log D partition coefficient, CHI method; assay type: physicochemical
Procedure: The Log D partition coefficient was measured using the CHI method.

[3] = system: Septoria tritici (SEPTTR); assay: Evaluation of fungicidal activity: leaf blotch of wheat, disease control on wheat seedlings; assay type: in vivo; conditions: for 3DC % control / 3DP % Control: wheat (variety Yuma) seedlings; for fungicidal activity against the fungi responsible for leaf blotch of wheat (Septoria tritici): in comparison with example 5 of U.S. Pat. No. 8,748,461
Procedure: Example 3: Evaluation of Fungicidal Activity: Leaf Blotch of Wheat (Mycosphaerella graminicola; Anamorph: Septoria tritici; Bayer code […]) Technical grades of materials were dissolved in acetone, which were then mixed with nine volumes of water containing 110 ppm Triton X-100. The fungicide solutions were applied onto wheat seedlings using an automated booth sprayer to run-off. All sprayed plants were allowed to air dry prior to further handling. Wheat plants (variety Yuma) were grown from seed in a greenhouse in 50% mineral soil/50% soil-less Metro mix until the first leaf was fully emerged, with 7-10 seedlings per pot. These plants were inoculated with an aqueous spore suspension of Septoria tritici either prior to or after fungicide treatments. After inoculation the plants were kept in 100% relative humidity (one day in a dark dew chamber followed by two to three days in a lighted dew chamber at 20° C.) to permit spores to germinate and infect the leaf. The plants were then transferred to a greenhouse set at 20° C. for disease to develop. When disease symptoms were fully expressed on the 1st leaves of untreated plants, infection levels were assessed on a scale of 0 to 100 percent disease severity. Percent disease control was calculated using the ratio of disease severity on treated plants relative to untreated plants.

H2O solubility (ppm) (thermodynamic) [1]	chromatographic logD [2]	SMILES	3DC % control ([3]; 6.25 g/ha) [%]	3DC % control ([3]; 25 g/ha) [%]	3DC % control ([3]; 100 g/ha) [%]	3DC % control ([3]; rate g/ha) [%]	3DP % Control ([3]; 1.56 g/ha) [%]	3DP % Control ([3]; 6.25 g/ha) [%]	3DP % Control ([3]; 25 g/ha) [%]	3DP % Control ([3]; 100 g/ha) [%]	fungicidal activity against the fungi responsible for leaf blotch of wheat (Septoria tritici) [3]
37.33	2.9	N#Cc1ccc(Oc2ccc(C(F)(F)C(O)(Cn3cncn3)c3ccc(F)cc3F)nc2)cc1 (stereo not drawn) [Example 1, 4-((6-(2-(2,4-difluorophenyl)-1,1-difluoro-2-hydroxy-3-(1H-1,2,4-triazol-1-yl)propyl)pyridin-3-yl)oxy)benzonitrile]	100	100	100	99	96	96	96	100	improved fungicidal activity
23.04	2.83	N#Cc1ccc(Oc2ccc(C(F)(F)C(O)(Cn3ncnc3S)c3ccc(F)cc3F)nc2)cc1 (stereo not drawn) [Example 2, 4-((6-(2-(2,4-difluorophenyl)-1,1-difluoro-2-hydroxy-3-(5-thioxo-4,5-dihydro-1H-1,2,4-triazol-1-yl)propyl)pyridin-3-yl)oxy)benzonitrile]	94	99	100	80	94	98	100	100	improved fungicidal activity
28.39	3.02	N#Cc1ccc(Oc2ccc(C(F)(F)C(O)(Cn3cnnn3)c3ccc(F)cc3F)nc2)cc1 (stereo not drawn) [Example 5*, 4-(6-(2-(2,4-difluorophenyl)-1,1-difluoro-2-hydroxy-3-(1H-tetrazol-1-yl)propyl)pyridin-3-yloxy)benzonitile, reference compound]	34	47	58	22	22	36	50	64	
5.15	3.32	OC(Cn1cncn1)(c1ccc(F)cc1F)C(F)(F)c1ccc(OCc2cccc(F)c2F)cn1 (stereo not drawn) [Example 45*, reference compound]	86	85	86	78	58	89	93	95	
